Test results as given in US20250154686A1, “COMPOUND LIBRARY” (CHUGAI SEIYAKU KABUSHIKI KAISHA, priority 2021, published 2025).

Biological target: T1, Bcl-2 protein (Recombinant Human Bcl-2 Protein) (Homo sapiens, UniProt P10415)
T1 construct: purchased Novus Biologicals NBP2-34889
Assay: AS-MS evaluation of binding of the Example 4 mixture library (1200 compounds/well) to Bcl-2, ASMS ratio (%)
Details: AS-MS, Example 4 mixture library; for ASMS ratio (%) n = 1: Bcl-2, replicate n = 1; for ASMS ratio (%) n = 2: Bcl-2, replicate n = 2
How it was run: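 ASMS ratio (%) derived from reverse-phase LC/MS of three samples: Bcl-2 (20 μM) incubation after SEC, protein-free standard without SEC, and protein-free blank after SEC. Compounds were pooled at 1200/well, 20 nM each, incubated 1 h, 23 °C, dark, in Tris-HCl pH 7.4 buffer with Tween-20 and DTT.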

T1 sequence (P10415 whole entry): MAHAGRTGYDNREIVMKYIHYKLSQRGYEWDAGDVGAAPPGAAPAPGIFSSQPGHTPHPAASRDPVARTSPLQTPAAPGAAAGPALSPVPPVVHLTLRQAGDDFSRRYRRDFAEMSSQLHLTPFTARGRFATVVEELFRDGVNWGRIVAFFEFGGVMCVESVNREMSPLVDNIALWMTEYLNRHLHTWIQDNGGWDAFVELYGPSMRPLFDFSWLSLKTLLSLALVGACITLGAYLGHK

ASMS ratio (%) n = 1 [%]	ASMS ratio (%) n = 2 [%]	SMILES
0.0	−7.4	CCOc1cncc(-c2ccc(CN3CCN(c4ccc(C(=O)NS(=O)(=O)c5ccc(NCCSc6ccccc6)c(C(F)(F)F)c5)cc4)CC3)cc2F)c1 [Compound B2R052-01, 4-[4-[[4-(5-Ethoxypyridin-3-yl)-3-fluorophenyl]methyl]piperazin-1-yl]-N-[4-(2-phenylsulfanylethylamino)-3-(trifluoromethyl)phenyl]sulfonylbenzamide]
−15.0	0.0	CCOc1cccc(-c2ccc(CN3CCN(c4ccc(C(=O)NS(=O)(=O)c5ccc(NCCSc6ccccc6)c(C(F)(F)F)c5)cc4)CC3)c(OC)c2)c1 [Compound B2R053-01, 4-[4-[[4-(3-Ethoxyphenyl)-2-methoxyphenyl]methyl]piperazin-1-yl]-N-[4-(2-phenylsulfanylethylamino)-3-(trifluoromethyl)phenyl]sulfonylbenzamide]
0.0	0.0	CCOc1cccc(-c2cc(OC)c(CN3CCN(c4ccc(C(=O)NS(=O)(=O)c5ccc(NCCSc6ccccc6)c(C(F)(F)F)c5)cc4)CC3)c(OC)c2)c1 [Compound B2R059-01, 4-[4-[[4-(3-Ethoxyphenyl)-2,6-dimethoxyphenyl]methyl]piperazin-1-yl]-N-[4-(2-phenylsulfanylethylamino)-3-(trifluoromethyl)phenyl]sulfonylbenzamide]
3.9	0.0	CCOc1cncc(-c2cc(OC)c(CN3CCN(c4ccc(C(=O)NS(=O)(=O)c5ccc(NCCSc6ccccc6)c(C(F)(F)F)c5)cc4)CC3)c(OC)c2)c1 [Compound B2R060-01, 4-[4-[[4-(5-Ethoxypyridin-3-yl)-2,6-dimethoxyphenyl]methyl]piperazin-1-yl]-N-[4-(2-phenylsulfanylethylamino)-3-(trifluoromethyl)phenyl]sulfonylbenzamide]
3.8	0.3	CCOc1cccc(-c2ccc(CN3CCN(c4ccc(C(=O)NS(=O)(=O)c5ccc(NCCSc6ccccc6)c(C(F)(F)F)c5)cc4)CC3)c3ccccc23)c1 [Compound B2R065-01, 4-[4-[[4-(3-Ethoxyphenyl)naphthalen-1-yl]methyl]piperazin-1-yl]-N-[4-(2-phenylsulfanylethylamino)-3-(trifluoromethyl)phenyl]sulfonylbenzamide]
8.0	0.0	CCOc1cccc(-c2csc(CN3CCN(c4ccc(C(=O)NS(=O)(=O)c5ccc(NCCSc6ccccc6)c(C(F)(F)F)c5)cc4)CC3)c2)c1 [Compound B2R067-01, 4-[4-[[4-(3-Ethoxyphenyl)thiophen-2-yl]methyl]piperazin-1-yl]-N-[4-(2-phenylsulfanylethylamino)-3-(trifluoromethyl)phenyl]sulfonylbenzamide]
0.0	0.0	CCOc1cncc(-c2csc(CN3CCN(c4ccc(C(=O)NS(=O)(=O)c5ccc(NCCSc6ccccc6)c(C(F)(F)F)c5)cc4)CC3)c2)c1 [Compound B2R068-01, 4-[4-[[4-(5-Ethoxypyridin-3-yl)thiophen-2-yl]methyl]piperazin-1-yl]-N-[4-(2-phenylsulfanylethylamino)-3-(trifluoromethyl)phenyl]sulfonylbenzamide]
21.4	11.4	CCOc1cncc(-c2ccccc2CN2CCN(c3ccc(C(=O)NS(=O)(=O)c4ccc(NCCSc5ccccc5)c(C(F)(F)F)c4)nn3)CC2)c1 [Compound B2R072-01]

Second part, the compound before the results:

SMILES	ASMS ratio (%) n = 1 [%]	ASMS ratio (%) n = 2 [%]
CCOc1cncc(-c2ccc(CN3CCN(c4ccc(C(=O)NS(=O)(=O)c5ccc(NCCSc6ccccc6)c(C(F)(F)F)c5)cc4)CC3)c(OC)c2)c1 [Compound B2R054-01, 4-[4-[[4-(5-Ethoxypyridin-3-yl)-2-methoxyphenyl]methyl]piperazin-1-yl]-N-[4-(2-phenylsulfanylethylamino)-3-(trifluoromethyl)phenyl]sulfonylbenzamide]	3.3	−0.8
CCOc1cccc(-c2cc(CN3CCN(c4ccc(C(=O)NS(=O)(=O)c5ccc(NCCSc6ccccc6)c(C(F)(F)F)c5)cc4)CC3)cc(OCC)c2)c1 [Compound B2R055-01, 4-[4-[[3-Ethoxy-5-(3-ethoxyphenyl)phenyl]methyl]piperazin-1-yl]-N-[4-(2-phenylsulfanylethylamino)-3-(trifluoromethyl)phenyl]sulfonylbenzamide]	−3.3	6.3
CCOc1cncc(-c2cc(CN3CCN(c4ccc(C(=O)NS(=O)(=O)c5ccc(NCCSc6ccccc6)c(C(F)(F)F)c5)cc4)CC3)cc(OCC)c2)c1 [Compound B2R056-01, 4-[4-[[3-Ethoxy-5-(5-ethoxypyridin-3-yl)phenyl]methyl]piperazin-1-yl]-N-[4-(2-phenylsulfanylethylamino)-3-(trifluoromethyl)phenyl]sulfonylbenzamide]	–	−63.9
CCOc1cccc(-c2cc(CN3CCN(c4ccc(C(=O)NS(=O)(=O)c5ccc(NCCSc6ccccc6)c(C(F)(F)F)c5)cc4)CC3)cc(OC(C)C)c2)c1 [Compound B2R057-01, 4-[4-[[3-(3-Ethoxyphenyl)-5-propan-2-yloxyphenyl]methyl]piperazin-1-yl]-N-[4-(2-phenylsulfanylethylamino)-3-(trifluoromethyl)phenyl]sulfonylbenzamide]	5.7	−5.1
CCOc1cncc(-c2cc(CN3CCN(c4ccc(C(=O)NS(=O)(=O)c5ccc(NCCSc6ccccc6)c(C(F)(F)F)c5)cc4)CC3)cc(OC(C)C)c2)c1 [Compound B2R058-01, 4-[4-[[3-(5-Ethoxypyridin-3-yl)-5-propan-2-yloxyphenyl]methyl]piperazin-1-yl]-N-[4-(2-phenylsulfanylethylamino)-3-(trifluoromethyl)phenyl]sulfonylbenzamide]	13.0	4.8
CCOc1cccc(-c2cc(CN3CCN(c4ccc(C(=O)NS(=O)(=O)c5ccc(NCCSc6ccccc6)c(C(F)(F)F)c5)cc4)CC3)cc(C(F)(F)F)c2)c1 [Compound B2R061-01, 4-[4-[[3-(3-Ethoxyphenyl)-5-(trifluoromethyl)phenyl]methyl]piperazin-1-yl]-N-[4-(2-phenylsulfanylethylamino)-3-(trifluoromethyl)phenyl]sulfonylbenzamide]	9.1	−6.0
CCOc1cncc(-c2cc(CN3CCN(c4ccc(C(=O)NS(=O)(=O)c5ccc(NCCSc6ccccc6)c(C(F)(F)F)c5)cc4)CC3)cc(C(F)(F)F)c2)c1 [Compound B2R062-01, 4-[4-[[3-(5-Ethoxypyridin-3-yl)-5-(trifluoromethyl)phenyl]methyl]piperazin-1-yl]-N-[4-(2-phenylsulfanylethylamino)-3-(trifluoromethyl)phenyl]sulfonylbenzamide]	0.0	0.0
CCOc1cccc(-c2cc(CN3CCN(c4ccc(C(=O)NS(=O)(=O)c5ccc(NCCSc6ccccc6)c(C(F)(F)F)c5)cc4)CC3)cc(OC(F)(F)F)c2)c1 [Compound B2R063-01, 4-[4-[[3-(3-Ethoxyphenyl)-5-(trifluoromethoxy)phenyl]methyl]piperazin-1-yl]-N-[4-(2-phenylsulfanylethylamino)-3-(trifluoromethyl)phenyl]sulfonylbenzamide]	8.2	4.6
CCOc1cncc(-c2cc(CN3CCN(c4ccc(C(=O)NS(=O)(=O)c5ccc(NCCSc6ccccc6)c(C(F)(F)F)c5)cc4)CC3)cc(OC(F)(F)F)c2)c1 [Compound B2R064-01, 4-[4-[[3-(5-Ethoxypyridin-3-yl)-5-(trifluoromethoxy)phenyl]methyl]piperazin-1-yl]-N-[4-(2-phenylsulfanylethylamino)-3-(trifluoromethyl)phenyl]sulfonylbenzamide]	4.2	−7.4
CCOc1cncc(-c2ccc(CN3CCN(c4ccc(C(=O)NS(=O)(=O)c5ccc(NCCSc6ccccc6)c(C(F)(F)F)c5)cc4)CC3)c3ccccc23)c1 [Compound B2R066-01, 4-[4-[[4-(5-Ethoxypyridin-3-yl)naphthalen-1-yl]methyl]piperazin-1-yl]-N-[4-(2-phenylsulfanylethylamino)-3-(trifluoromethyl)phenyl]sulfonylbenzamide]	19.8	−10.7
CCOc1cccc(C#Cc2ccccc2CN2CCN(c3ccc(C(=O)NS(=O)(=O)c4ccc(NCCSc5ccccc5)c(C(F)(F)F)c4)cc3)CC2)c1 [Compound B2R069-01, 4-[4-[[2-[2-(3-Ethoxyphenyl)ethynyl]phenyl]methyl]piperazin-1-yl]-N-[4-(2-phenylsulfanylethylamino)-3-(trifluoromethyl)phenyl]sulfonylbenzamide]	12.3	−18.5
CCOc1cccc(-c2ccccc2CN2CCN(c3ccc(C(=O)NS(=O)(=O)c4ccc(NCCSc5ccccc5)c(C(F)(F)F)c4)nn3)CC2)c1 [Compound B2R071-01]	14.3	−9.0
CCOc1cccc(-c2ccc(CN3CCN(c4ccc(C(=O)NS(=O)(=O)c5ccc(NCCSc6ccccc6)c(C(F)(F)F)c5)nn4)CC3)cc2C)c1 [Compound B2R073-01, 6-[4-[[4-(3-Ethoxyphenyl)-3-methylphenyl]methyl]piperazin-1-yl]-N-[4-(2-phenylsulfanylethylamino)-3-(trifluoromethyl)phenyl]sulfonylpyridazine-3-carboxamide]	24.0	0.0
